A word on the IC50: it is the concentration at which inhibition is half-maximal. A high value points to a need for much substance.

The target of this experiment is Bromodomain-containing protein 4 (Homo sapiens, UniProt O60885). Nature of the experiment: Inhibition of GST-tagged BRD4-BD1 (49 to 170 residues) (unknown origin) using Histone H4 peptide as substrate incubated for 1.5 hrs by FRET assay.
As for `CCN(CC)S(=O)(=O)c1ccc([C@H]2CC(=O)N(C)C2)c(-c2ccc(OC)c(OC)c2)c1`, inhibition was half-maximal at 14.1 µM (IC50).
For `CCN(CC)S(=O)(=O)c1ccc(C2CC(=O)N(C)C2)c(-c2csc3ccccc23)c1` (stereo not given) the value was 2670 µM; for `CN1CC(c2ccc(S(=O)(=O)NCCCn3ccnc3)cc2)CC1=O` (stereo not given), 1390 µM; for `CN1CC(c2ccc(S(=O)(=O)N3CCCCC3)cc2)CC1=O` (stereo not given), 144 µM.
`CCCNS(=O)(=O)c1ccc(C2CC(=O)N(C)C2)cc1` (stereo not given) yielded an IC50 of 147 µM.
The same measure for `CCN(CC)S(=O)(=O)c1ccc(C2CC(=O)N(C)C2)c(-c2ccc(OC)c(OC)c2)c1` (stereo not given): 51.6 µM.
For `CC(C)NS(=O)(=O)c1ccc(C2CC(=O)N(C)C2)cc1` (stereo not given) the value was 134 µM; for `CN1CC(c2ccccc2Br)CC1=O` (stereo not given), 321 µM; for `CN1CC(c2ccc(S(=O)(=O)NC34CC5CC(CC(C5)C3)C4)cc2)CC1=O` (stereo not given), 151 µM.
Consider `CCNS(=O)(=O)c1ccc(C2CC(=O)N(C)C2)cc1` (stereo not given), for which half-maximal inhibition (IC50) was put at 250 µM.
The same measure for `CCN(CC)S(=O)(=O)c1ccc(C2CC(=O)N(C)C2)c(CCc2ccccc2)c1` (stereo not given): 4500 µM.
`CN1CC(c2ccc(S(=O)(=O)N3CCOCC3)cc2)CC1=O` (stereo not given) registered an IC50 of 276 µM.
For `CCN(CC)S(=O)(=O)c1ccc(C2CC(=O)N(C)C2)c(-c2ccccc2)c1` (stereo not given) the value was 3200 µM; for `CN1CC(c2ccc(S(=O)(=O)N3CCC(c4ccccc4)CC3)cc2)CC1=O` (stereo not given), 473 µM.
As to `CN1CC(c2ccc(S(=O)(=O)N3CCC[C@H](C(=O)O)C3)cc2)CC1=O` (stereo not given in full), the IC50 worked out at 1960 µM.
The same measure for `CN1CC(c2ccc(S(=O)(=O)N3CCC[C@@H](C(=O)O)C3)cc2)CC1=O` (stereo not given in full): 1680 µM.
For `CN1CC(c2ccccc2-c2ccccc2)CC1=O` (stereo not given) the value was 575 µM; for `CN1CC(c2ccc(S(=O)(=O)NCc3ccccc3)cc2)CC1=O` (stereo not given), 443 µM; for `CN1C[C@H](c2ccccc2)CC1=O`, 1430 µM.
As to `CCN(CC)S(=O)(=O)c1ccc([C@@H]2CC(=O)N(C)C2)c(-c2ccc(OC)c(OC)c2)c1`, the half-maximal inhibitory concentration (IC50) turned out to be 35.2 µM.
On to `CN1C[C@@H](c2ccccc2)CC1=O`, for which the IC50 was 629 µM.
Regarding `CCN(CC)S(=O)(=O)c1ccc(C2CC(=O)N(C)C2)c(-c2ccc(N(C)C)cc2)c1` (stereo not given), 217 µM corresponded to half-maximal inhibition (IC50).
The same measure for `CN1CC(c2ccccc2)CC1=O` (stereo not given): 1140 µM; for `CN1CC(c2ccc(Br)cc2)CC1=O` (stereo not given): 417 µM; for `CCN(CC)S(=O)(=O)c1ccc(C2CC(=O)N(C)C2)cc1` (stereo not given): 123 µM.
For `CCN(CC)S(=O)(=O)c1ccc(C2CC(=O)N(C)C2)c(Br)c1` (stereo not given) the value was 652 µM; for `CN1CC(c2ccc(S(=O)(=O)N3C4CCC3CC(=O)C4)cc2)CC1=O` (stereo not given), 223 µM; for `CN1CC(c2ccc(-c3ccccc3)cc2)CC1=O` (stereo not given), 434 µM.
For `CN1CC(c2ccc(S(=O)(=O)N3CCCc4ccccc43)cc2)CC1=O` (stereo not given) the value was 450 µM; for `CCN(CC)S(=O)(=O)c1ccc(C2CC(=O)N(C)C2)c(CCCc2ccccc2)c1` (stereo not given), over 5000 µM.

The record behind these values is ChEMBL document CHEMBL4680215, “Substituted 1-methyl-4-phenylpyrrolidin-2-ones - Fragment-based design of N-methylpyrrolidone-derived bromodomain inhibitors” (Eur J Med Chem, 2020).
